This series can be described thus: UV-vis absorption, stability constant by modified Benesi-Hildebrand equation. The series is classed as physicochemical. The note with it: UV absorption spectra, ethanol/water (50%, v/v), 1:1 host-guest complex assumed. As for the experimental part: Furthermore, absorption spectra obtained with various concentrations of β-CD (0 to 1.44 mmol/L) and added to a constant drug (0.03753 mmol/L UA or 0.038715 mmol/L OA) concentration in ethanol/water (50%, v/v) were scanned by the UV spectrophotometry (Shimadzu UV-2401 visible spectrophotometer, Shimadzu Corp., Tokyo, Japan). The stability constant was calculated according to the modified Benesi-Hildebrand equation Eq. (1) assuming the formation of a 1:1 host-guest complex^[[14]^].
(1) 1/ΔA=1/KΔε[D]01/[CD]0+1/Δε[D]0 Where ΔA was the change in absorbance of drugs at λmax in the presence and absence of β-CD. [D]0 and [CD]0 were the total concentration of added drug and β-CD, respectively. Δε represented the difference in molar absorptivities between the free drug and the inclusion complex, and K was the stability constant.

SMILES strings stand for the structures.

As for `CC1(C)CC[C@]2(C(=O)O)CC[C@]3(C)C(=CC[C@@H]4[C@@]5(C)CC[C@H](O)C(C)(C)[C@@H]5CC[C@]43C)[C@@H]2C1` [OA, oleanolic acid], the “stability constant K” value came out at 5157 L/mol.

As to `C[C@H]1[C@H](C)CC[C@]2(C(=O)O)CC[C@]3(C)C(=CC[C@@H]4[C@@]5(C)CC[C@H](O)C(C)(C)[C@@H]5CC[C@]43C)[C@H]12` [UA, ursolic acid], the “stability constant K” value is 5642 L/mol.

For the origin of these results see publication PMC5706432, “Host-guest interaction of β-cyclodextrin with isomeric ursolic acid and oleanolic acid: physicochemical characterization and molecular modeling study” (Journal of Biomedical Research, 2017).
